This is an account of results in patent publication US20020111355A1, “Cyclic urea and cyclic amide derivatives” (American Home Products Corporation, priority 1999, published 2002).

Data set [1] deals with rat uterine decidualization. Kind of data set: Rat decidualization assay. Conditions: average over dose-response curves; decidual response; s.c.
The subject of the next data set is T47D cells. Kind of data set: T47D cell proliferation assay (BrdU incorporation). Type of data set: cell-based. As to conditions: Homo sapiens, decrease in trimegestone induced BrdU incorporation (0.03 nM trimegestone), individual studies. The protocol: 3. T47D Cell Proliferation Assay
The objective of this assay is the determination of progestational and antiprogestational potency by using a cell proliferation assay in T47D cells. A compound's effect on DNA synthesis in T47D cells is measured.
DMEM:F12 (1:1) (GIBCO, BRL) supplemented with 10% (v/v) fetal bovine serum (not heat-inactivated), 100 U/ml penicillin, […], and 2 mM GlutaMax (GIBCO, BRL).
Minimum Essential Medium (MEM) (#51200-038GIBCO, BRL) phenol red-free supplemented with 0.5% charcoal stripped fetal bovine serum, 100 U/ml penicillin, […] streptomycin, and 2 mM GlutaMax (GIBCO, BRL). […]
At the end of BrdU labeling, the medium is removed and BrdU incorporation is measured using a cell proliferation ELISA kit (#RPN 250, Amersham Life Science) according to manufacturer's instructions. […] Then 25 μl of 1 M sulfuric acid is added to each well to stop color reaction and optical density is read in a plate reader at 450 nm within 5 min.
Square root-transformed data are used for analysis of variance and nonlinear dose response curve fitting for both agonist and antagonist modes. […] EC50 or IC50 values are calculated from the retransformed values. […]
(In general: Incorporation of labelled thymidine or its analogues reports DNA synthesis.)

In general, melting point refers to the temperature of the solid-liquid transition. For orientation: pIC50 means the negative decadic logarithm of the IC50, by convention in mol/L. The low end stands for a large IC50, the high end for a small IC50.

pIC50: −log10 of the molar value.

For the compound `C#C[C@]1(O)CC[C@H]2[C@@H]3CCC4=CC(=O)CC[C@@H]4[C@H]3C(=C)C[C@@]21CC` [3-Ketodesogestrel], the “average EC50” value in data set [1] amounted to 0.10 mg/kg. s.c.

`CC1(C)OC(=O)Nc2ncc(-c3cccc(Cl)c3)cc21` [Example 4, 6-(3-Chloro-phenyl)-4,4-dimethyl-1,4-dihydro-3-oxa-1,8-diaza-naphthalene-2-one] displayed a melting point of 214 to 215 °C.

On to `C#C[C@]1(O)CC[C@H]2[C@@H]3CCC4=CC(=O)CC[C@@H]4[C@H]3CC[C@@]21CC` [Levonorgestrel], for which the “average EC50” value in data set [1] stood at 0.10 mg/kg. s.c.

Consider `CC#C[C@]1(O)CC[C@H]2[C@@H]3CCC4=CC(=O)CCC4=C3[C@@H](c3ccc(N(C)C)cc3)C[C@@]21C` [RU486], for which the pIC50 in the data set with T47D cells was 10.96.
